Test results as given in patent publication US20220241331A1, “IDENTIFICATION OF RECURRENT MUTATED NEOPEPTIDES” (Yeda Research and Development Co. Ltd., priority 2019, published 2022).

T1: RAS wild-type (NRAS) peptide on HLA-A*01:01 (human)
T1 peptide: ILDTAGQEEY

T2: NRAS Q61K (RAS.Q61K) peptide on HLA-A*01:01 (human)
T2 peptide: ILDTAGKEEY


Experiments:
17TIL = experiment: IFNγ release ELISA, 17TIL co-incubated with peptide-pulsed A*01:01 B-cells; assay type: cell-based, human; conditions: for IFN-γ release from TIL stimulated by pulsed peptide: peptide-pulsed A*01:01 EBV-transformed B cells, overnight co-incubation, vs non-pulsed B-cell control (FIG. 3A); for TIL IFNγ response in peptide titration: titrated concentrations of pulsed peptide (FIG. 3B)
Protocol: (§1) IFNγ's release from TIL, as measured in an enzyme-linked immunosorbent assay (ELISA), was used to quantify reactivity. Synthetic pure (>95% purity) mutant ([…] (SEQ ID NO: 1)) and wild-type ([…] (SEQ ID NO: 2)) peptides were purchased from GenScript and dissolved in DMSO.
(§2) EBV-transformed B-cells bearing HLA allele A*01:01 were used for peptide pulsing. A B-cell suspension at 1×10^6 cells/ml was incubated with the peptide of choice, at the desired concentration (0.001-10 μg/ml), for 4 h in a 37° C., 5% CO2, humidified incubator. The DMSO volume was kept at 1% in all samples. For the no-peptide control, DMSO devoid of peptides was added. The B-cells were washed in PBS three times before proceeding to the co-incubation with TILs. TILs were co-cultured with either cognate melanoma or EBV-transformed B-cells at a 1:1 ratio (10^5-2×10^6 cells) and incubated overnight in a 37° C., 5% CO2, humidified incubator. The soluble IFNγ secreted from TILs was quantified from the co-culture supernatant using Biolegend Human IFN-γ ELISA MAX Deluxe (Cat#430106). All experiments were conducted in biological triplicates.
(§3) To evaluate the immunogenicity of the NRAS.Q61K neo-antigen, two melanoma cell lines that harbor the HLA-A*01:01/NRAS.Q61K combination, 17T and 135T were analyzed. Synthetic mutant (ILDTAG ? EEY-SEQ ID NO: 1) or wild-type (ILDTAG ? EEY-SEQ ID NO: 2) peptide was pulsed on either one of three commercial, A*01:01 expressing, Epstein bar virus (EBV)-transformed B cells^35. No other HLA class-I allele was shared among all three B-cell lines, and no other HLA class-I allele expressed by these cell lines was predicted to bind the neo-peptide at hand (Table 2).
(§4) The peptide-pulsed B-cells were co-incubated with either 17TIL or 135TIL overnight, followed by measurement of peptide stimulated interferon-γ (IFN-γ) release from the TIL by means of enzyme-linked immunosorbent assay (ELISA). […] Peptide titration assays further confirmed specific TIL reactivity towards the HLA-A*01:01/NRAS.Q61K neo-antigen, for both 17TIL and 135TIL (FIG. 3B).

135TIL = experiment: IFNγ release ELISA, 135TIL co-incubated with peptide-pulsed A*01:01 B-cells; assay type: cell-based, human; conditions: for IFN-γ release from TIL stimulated by pulsed peptide: peptide-pulsed A*01:01 EBV-transformed B cells, overnight co-incubation, vs non-pulsed B-cell control (FIG. 3A); for TIL IFNγ response in peptide titration: titrated concentrations of pulsed peptide (FIG. 3B)
Protocol: as §1, §2, §3, §4

[1] = biological target: T1, RAS wild-type (NRAS) peptide on …; experiment: cytokine release
Protocol: (§5) Peripheral mononuclear cells (PBMC) from healthy donors were electroporated with in-vitro transcribed mRNA, coding for TCRα/TCRβ combinations of interest. […] (A) Flow cytometry plots for electroporated PBMC. Top row—mouse TCRβ constant region staining. Bottom row—[sequence]/A*01:01 tetramer staining. Cells were stained at 6-30 hours post electroporation. (B) IFNγ release from electroporated donor PBMC as measured in ELISA. A*01:01+ B-LCL IHW01161 was pulsed with either wild-type or mutant versions of the peptide at 10 μM prior to overnight co-incubation with electroporated PBMC. Supernatants were diluted 1:20 prior to assay performance to avoid saturation.

[2] = biological target: T2, NRAS Q61K (RAS.Q61K) peptide on …; experiment: multimer staining
Protocol: as §5

[3] = biological target: T2, NRAS Q61K (RAS.Q61K) peptide on …; experiment: cytokine release
Protocol: as §5

Row | Molecule | IFN-γ release from TIL stimulated by pulsed peptide (17TIL) | TIL IFNγ response in peptide titration (17TIL) | IFN-γ release from TIL stimulated by pulsed peptide (135TIL) | TIL IFNγ response in peptide titration (135TIL) | binding result [1] | binding result [2] | further results
1 | ILDTAGKEEY [RAS.Q61-derived neo-peptide, variant Q61K; presented on HLA-A*01:01] | stimulated a clear interferon-γ (IFN-γ) signal | clear dose-response relationship | stimulated a clear interferon-γ (IFN-γ) signal | clear dose-response relationship |  |  | minimum peptide concentration with significant IFNγ response (17TIL; peptide titration (FIG. 3B)): 10 ng/mL; minimum peptide concentration with significant IFNγ response (135TIL; peptide titration (FIG. 3B)): 1 ng/mL
2 | ILDTAGQEEY [WT RAS.Q61-derived peptide, reference compound] | did not elicit significant increase over a non-pulsed B-cell control | non-significant and did not depend on peptide concentration | did not elicit significant increase over a non-pulsed B-cell control | non-significant and did not depend on peptide concentration |  |  | 
3 | N135.1 (TCR) alpha TRAV19 TRAJ39 CDR3: CALSESHNNAGNMLTF beta TRBV6-1 TRBJ1-1 CDR3: CAASQNTEAFF |  |  |  |  | no recognition | recognises | 
4 | N17.2 (TCR) alpha TRAV5 TRAJ9 CDR3: CAESSGGGFKTIF beta TRBV6-6 TRBJ2-7 CDR3: CASSTPGPSAYEQYF |  |  |  |  | no recognition | recognises | 
5 | N17.3 (TCR) alpha TRAV19 TRAJ17 CDR3: CALSESGDAAGNKLTF beta TRBV6-1 TRBJ1-1 CDR3: CAEGENTEAFF |  |  |  |  | no recognition | recognises | 
6 | NA135.1/NB17.3 (TCR) alpha TRAV19 TRAJ39 CDR3: CALSESHNNAGNMLTF beta TRBV6-1 TRBJ1-1 CDR3: CAEGENTEAFF |  |  |  |  |  |  | binding result [3]: recognises
